Reference: PubChem BioAssay (NCI)
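Cultured in 96-well plates, cells were exposed to test compound for 48 hours across five concentrations. GI50 marks 50% less growth. TGI: total growth inhibition.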

Columns and labels:
Assay in all cases: growth of human tumour cells (NCI), 48 h
786-0 renal = system: 786-0 renal
A498 renal = system: A498 renal
A549 NSCLC = system: A549 NSCLC
ACHN renal = system: ACHN renal
BT-549 breast = system: BT-549 breast
CAKI-1 renal = system: CAKI-1 renal
CCRF-CEM leukemia = system: CCRF-CEM leukemia
COLO 205 colon = system: COLO 205 colon
DU-145 prostate = system: DU-145 prostate
EKVX NSCLC = system: EKVX NSCLC
HCC-2998 colon = system: HCC-2998 colon
HCT-116 colon = system: HCT-116 colon
HCT-15 colon = system: HCT-15 colon
HL-60(TB) leukemia = system: HL-60(TB) leukemia
HOP-62 NSCLC = system: HOP-62 NSCLC
HOP-92 NSCLC = system: HOP-92 NSCLC
HS 578T breast = system: HS 578T breast
HT29 colon = system: HT29 colon
IGROV1 ovarian = system: IGROV1 ovarian
KM12 colon = system: KM12 colon
LOX IMVI melanoma = system: LOX IMVI melanoma
M14 melanoma = system: M14 melanoma
MALME-3M melanoma = system: MALME-3M melanoma
MCF7 breast = system: MCF7 breast
MDA-MB-231 breast = system: MDA-MB-231 breast
MOLT-4 leukemia = system: MOLT-4 leukemia
NCI-H226 lung = system: NCI-H226 lung
NCI-H23 lung = system: NCI-H23 lung

Structure (SMILES): O=CNc1ccc2c(c1)Cc1cc([N+](=O)[O-])ccc1-2
- GI50 (786-0 renal): 5.32 µM
- TGI (786-0 renal): > 100 µM
- GI50 (A498 renal): 2020 nM
- TGI (A498 renal): > 58.1 µM
- GI50 (A549 NSCLC): 5.75 µM
- TGI (A549 NSCLC): > 77.4 µM
- GI50 (ACHN renal): 6.52 µM
- TGI (ACHN renal): > 100 µM
- GI50 (BT-549 breast): 2930 nM
- TGI (BT-549 breast): > 100 µM
- GI50 (CAKI-1 renal): 3.29 µM
- TGI (CAKI-1 renal): > 100 µM
- GI50 (CCRF-CEM leukemia): 1310 nM
- TGI (CCRF-CEM leukemia): > 100 µM
- GI50 (COLO 205 colon): 2870 nM
- TGI (COLO 205 colon): > 100 µM
- GI50 (DU-145 prostate): 2830 nM
- TGI (DU-145 prostate): > 100 µM
- GI50 (EKVX NSCLC): 657 nM
- TGI (EKVX NSCLC): > 100 µM
- GI50 (HCC-2998 colon): 1300 nM
- TGI (HCC-2998 colon): > 100 µM
- GI50 (HCT-116 colon): 1380 nM
- TGI (HCT-116 colon): > 100 µM
- GI50 (HCT-15 colon): 2860 nM
- TGI (HCT-15 colon): > 100 µM
- GI50 (HL-60(TB) leukemia): 3.21 µM
- TGI (HL-60(TB) leukemia): > 100 µM
- GI50 (HOP-62 NSCLC): 8.71 µM
- TGI (HOP-62 NSCLC): > 100 µM
- GI50 (HOP-92 NSCLC): 6.97 µM
- TGI (HOP-92 NSCLC): > 100 µM
- GI50 (HS 578T breast): 1230 nM
- TGI (HS 578T breast): 5.16 µM
- GI50 (HT29 colon): 4.5 µM
- TGI (HT29 colon): > 100 µM
- GI50 (IGROV1 ovarian): 3.95 µM
- TGI (IGROV1 ovarian): > 100 µM
- GI50 (KM12 colon): 715 nM
- TGI (KM12 colon): > 100 µM
- GI50 (LOX IMVI melanoma): 2620 nM
- TGI (LOX IMVI melanoma): 98.5 µM
- GI50 (M14 melanoma): 291 nM
- TGI (M14 melanoma): > 100 µM
- GI50 (MALME-3M melanoma): 5.97 µM
- TGI (MALME-3M melanoma): > 100 µM
- GI50 (MCF7 breast): 561 nM
- TGI (MCF7 breast): > 100 µM
- GI50 (MDA-MB-231 breast): 4.11 µM
- TGI (MDA-MB-231 breast): > 100 µM
- GI50 (MOLT-4 leukemia): 2780 nM
- TGI (MOLT-4 leukemia): > 53.1 µM
- GI50 (NCI-H226 lung): 27.7 µM
- TGI (NCI-H226 lung): > 100 µM
- GI50 (NCI-H23 lung): 4.61 µM
- TGI (NCI-H23 lung): > 100 µM
